# Legend:
# [1] = Clearance in human liver microsomes at 1 umol/L after 20 mins by HPLC analysis in presence of NADPH; assay type: ADME, Microsome; conditions: read-out: CLH
# [2] = Clearance in rat liver microsomes at 1 umol/L after 20 mins by HPLC analysis in presence of NADPH; assay type: ADME, Microsome; conditions: read-out: CLH
# [3] = target: T1, Peroxisome proliferator-activated receptor gamma (Homo sapiens, UniProt P37231); experiment: Transactivation of human PPARgamma1 expressed in CHO-K1 cells co-expressing RXRalpha and PPRE after 1 day by luciferase reporter gene assay; assay type: cell-based
# T1 sequence (P37231 whole entry): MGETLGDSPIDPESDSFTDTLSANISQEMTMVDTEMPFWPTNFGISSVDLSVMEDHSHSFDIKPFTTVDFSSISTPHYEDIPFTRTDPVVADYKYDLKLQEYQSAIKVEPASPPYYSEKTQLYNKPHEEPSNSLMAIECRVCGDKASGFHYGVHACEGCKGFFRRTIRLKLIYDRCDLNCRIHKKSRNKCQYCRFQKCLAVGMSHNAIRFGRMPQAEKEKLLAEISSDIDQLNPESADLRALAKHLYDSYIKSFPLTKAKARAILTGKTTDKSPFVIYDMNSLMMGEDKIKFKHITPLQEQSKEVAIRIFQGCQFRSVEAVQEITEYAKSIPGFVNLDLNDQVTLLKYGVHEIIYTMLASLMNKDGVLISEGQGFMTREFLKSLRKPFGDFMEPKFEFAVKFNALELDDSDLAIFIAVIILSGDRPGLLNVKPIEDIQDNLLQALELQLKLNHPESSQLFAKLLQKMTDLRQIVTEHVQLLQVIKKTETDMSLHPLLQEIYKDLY
# [4] = Dissociation constant, pKa of the compound; assay type: physicochemical
# [5] = Clearance in human liver microsomes at 1 umol/L after 2 hrs by HPLC analysis in absence of NADPH; assay type: ADME, Microsome; conditions: read-out: CLH
# [6] = Clearance in rat liver microsomes at 1 umol/L after 2 hrs by HPLC analysis in absence of NADPH; assay type: ADME, Microsome; conditions: read-out: CLH
# [7] = test system: Rattus norvegicus; experiment: Antidiabetic activity in po dosed Wistar fatty rat type 2 diabetes model assessed as reduction on plasma glucose level administered once daily for 7 days measured by autoanalyzer relative to control; assay type: functional; conditions: 168 h
# [8] = test system: Rattus norvegicus; experiment: Antidiabetic activity in po dosed Wistar fatty rat type 2 diabetes model assessed as reduction on plasma triglyceride level administered once daily for 7 days measured by autoanalyzer relative to control; assay type: functional; conditions: 168 h
# [9] = target: T2, Peroxisome proliferator-activated receptor alpha (Homo sapiens, UniProt Q07869); experiment: Transactivation of human PPARalpha expressed in african green monkey COS1 cells after 1 day by luciferase reporter gene assay; assay type: cell-based, COS-1
# T2 sequence (Q07869 whole entry): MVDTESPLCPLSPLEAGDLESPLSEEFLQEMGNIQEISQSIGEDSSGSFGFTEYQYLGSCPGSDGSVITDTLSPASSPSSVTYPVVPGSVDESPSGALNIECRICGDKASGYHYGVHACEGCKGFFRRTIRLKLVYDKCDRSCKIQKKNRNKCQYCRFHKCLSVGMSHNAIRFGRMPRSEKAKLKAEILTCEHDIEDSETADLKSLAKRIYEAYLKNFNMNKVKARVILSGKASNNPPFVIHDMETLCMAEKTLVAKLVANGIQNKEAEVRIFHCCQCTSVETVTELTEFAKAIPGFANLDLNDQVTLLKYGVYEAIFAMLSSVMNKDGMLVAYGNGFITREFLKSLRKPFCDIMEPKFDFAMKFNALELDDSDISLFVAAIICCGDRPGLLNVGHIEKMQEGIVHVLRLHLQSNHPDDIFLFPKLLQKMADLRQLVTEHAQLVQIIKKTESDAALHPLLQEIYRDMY
# [10] = Cmax in Wistar fatty rat at 0.18 mg/kg, po; assay type: ADME, organism-based; parameters: dose 0.18 mg/kg, route oral; conditions: in vivo
# [11] = target: T3, Peroxisome proliferator-activated receptor delta (Homo sapiens, UniProt Q03181); experiment: Transactivation of human PPARdelta expressed in african green monkey COS1 cells after 1 day by luciferase reporter gene assay; assay type: cell-based, COS-1
# T3 sequence (Q03181 whole entry): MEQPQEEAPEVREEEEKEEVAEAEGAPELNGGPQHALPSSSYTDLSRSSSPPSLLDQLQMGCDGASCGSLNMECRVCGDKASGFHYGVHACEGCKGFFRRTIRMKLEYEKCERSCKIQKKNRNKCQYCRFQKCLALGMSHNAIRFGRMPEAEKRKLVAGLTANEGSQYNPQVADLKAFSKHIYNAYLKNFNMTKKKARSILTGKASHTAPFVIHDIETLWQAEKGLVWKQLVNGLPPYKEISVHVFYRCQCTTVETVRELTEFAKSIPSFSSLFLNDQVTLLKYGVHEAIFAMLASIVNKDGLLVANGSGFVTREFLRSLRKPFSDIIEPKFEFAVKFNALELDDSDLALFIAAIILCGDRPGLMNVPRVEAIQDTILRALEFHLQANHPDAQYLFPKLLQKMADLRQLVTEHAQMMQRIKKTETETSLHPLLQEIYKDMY
# [12] = target: T1, Peroxisome proliferator-activated receptor gamma; experiment: Displacement of [3H]-AD-5061 from human GST-tagged PPARgamma
# [13] = AUC (0 to 24 hrs) in Wistar fatty rat at 0.18 mg/kg, po; assay type: ADME, organism-based; parameters: time < 24 hr, dose 0.18 mg/kg, route oral; conditions: plasma
Compound,microsomal CLint at 1 µM [1],microsomal CLint at 1 µM [2],EC50 [3],further results
CCCCCS(=O)(=O)NC(=O)/C(C)=C/c1ccc(OCCOC)cc1Oc1ncc(C(F)(F)F)cc1Cl,20 µL/min/mg,20 µL/min/mg,–,–
CCCCCNS(=O)(=O)NC(=O)CCc1ccc(OCCOC)cc1Oc1ncc(C(F)(F)F)cc1Cl,70 µL/min/mg,111 µL/min/mg,–,–
CCCCCS(=O)(=O)NC(=O)/C=C/c1ccc(OCCCOC)cc1Oc1ncc(C(F)(F)F)cc1Cl,16 µL/min/mg,15 µL/min/mg,–,–
CCCCCS(=O)(=O)NC(=O)/C=C/c1ccc(OCCO)cc1Oc1ncc(C(F)(F)F)cc1Cl,< 1 µL/min/mg,< 1 µL/min/mg,–,–
CCCCCS(=O)(=O)NC(=O)/C=C/c1ccc(OCCC(C)=O)cc1Oc1ncc(C(F)(F)F)cc1Cl,30 µL/min/mg,19 µL/min/mg,59 nM,–
CCCCCS(=O)(=O)NC(=O)/C=C/c1ccc(OCCCS(C)(=O)=O)cc1Oc1ncc(C(F)(F)F)cc1Cl,6 µL/min/mg,< 1 µL/min/mg,320 nM,–
CCCCCS(=O)(=O)NC(=O)/C=C/c1ccc(OCCCC#N)cc1Oc1ncc(C(F)(F)F)cc1Cl,23 µL/min/mg,19 µL/min/mg,–,–
CCCCCNC(=O)CCc1ccc(OC(C)C)cc1Oc1ncc(C(F)(F)F)cc1Cl,–,–,290 nM,–
CCCCCS(=O)(=O)NCCCc1ccc(OCCOC)cc1Oc1ncc(C(F)(F)F)cc1Cl,210 µL/min/mg,204 µL/min/mg,32 nM,–
CCCCOC(=O)NCCCc1ccc(OCCOC)cc1Oc1ncc(C(F)(F)F)cc1Cl,–,–,38 nM,–
CCCCNC(=O)OCCCc1ccc(OCCOC)cc1Oc1ncc(C(F)(F)F)cc1Cl,–,–,48 nM,–
CCCCCS(=O)(=O)NC(=O)OCCCc1ccc(OCCOC)cc1Oc1ncc(C(F)(F)F)cc1Cl,90 µL/min/mg,35 µL/min/mg,–,pKa [4]: 4.6
CCCCCS(=O)(=O)NC(=O)CCc1ccccc1Oc1ncc(C(F)(F)F)cc1Cl,78 µL/min/mg,120 µL/min/mg,61 nM,–
CCCCCS(=O)(=O)NC(=O)CCc1ccc(OC(C)C)cc1Oc1ncc(C(F)(F)F)cc1Cl,57 µL/min/mg,94 µL/min/mg,–,–
CCCCCS(=O)(=O)NC(=O)CCc1ccc(OCCOC)cc1Oc1ncc(C(F)(F)F)cc1Cl,77 µL/min/mg,62 µL/min/mg,–,"pKa [4]: 4.6; metabolised at 2 h, 1 µM [5]: 50.1%; metabolised at 2 h, 1 µM [6]: 13.6%"
CCCCCS(=O)(=O)NC(=O)CCc1ccc(OCC(=O)N(CC)CC)cc1Oc1ncc(C(F)(F)F)cc1Cl,95 µL/min/mg,92 µL/min/mg,–,–
CCCCCS(=O)(=O)NC(=O)CCc1ccc(OCCN2CCCC2=O)cc1Oc1ncc(C(F)(F)F)cc1Cl,78 µL/min/mg,104 µL/min/mg,–,–

Compound,microsomal CLint at 1 µM [1],microsomal CLint at 1 µM [2],EC50 [3],further results
COCCCS(=O)(=O)NC(=O)CCc1ccc(OCCOC)cc1Oc1ncc(C(F)(F)F)cc1Cl,7 µL/min/mg,11 µL/min/mg,11 nM,–
COCCOc1ccc(CCC(=O)NS(=O)(=O)c2ccccc2)c(Oc2ncc(C(F)(F)F)cc2Cl)c1,–,–,32 nM,–
COCCOc1ccc(CCC(=O)NS(=O)(=O)c2ccc(Cl)cc2)c(Oc2ncc(C(F)(F)F)cc2Cl)c1,67 µL/min/mg,71 µL/min/mg,8.6 nM,–
CCCCCS(=O)(=O)NC(=O)/C=C/c1ccc(OCCOC)cc1Oc1ncc(C(F)(F)F)cc1Cl,9 µL/min/mg,6 µL/min/mg,–,"ED25 [7]: 0.17 mg/kg; ED25 [8]: 0.2 mg/kg; metabolised at 2 h, 1 µM [5]: 94.8%; EC50 [9]: > 10000 nM; metabolised at 2 h, 1 µM [6]: 87.3%; Cmax [10]: 946 ng/mL; EC50 [11]: > 10000 nM; IC50 [12]: 330 nM; AUC(0-t) at 24 h [13]: 15300 ng·h/mL"
CCCCCS(=O)(=O)NC(=O)C(C)Cc1ccc(OCCOC)cc1Oc1ncc(C(F)(F)F)cc1Cl (stereo not drawn),128 µL/min/mg,189 µL/min/mg,–,–
CCCCCS(=O)(=O)NC(=O)C(C)(C)Cc1ccc(OCCOC)cc1Oc1ncc(C(F)(F)F)cc1Cl,113 µL/min/mg,78 µL/min/mg,–,–
CCCCCS(=O)(=O)NC(=O)C1CC1c1ccc(OCCOC)cc1Oc1ncc(C(F)(F)F)cc1Cl (stereo not drawn),40 µL/min/mg,–,5.5 nM,"metabolised at 2 h, 1 µM [5]: 73.8%; metabolised at 2 h, 1 µM [6]: 81.7%; hepatic extraction ratio at 20 min, 1 µM [2]: 0.26"
CCCCCS(=O)(=O)NC(=O)C(Cc1ccc(OCCOC)cc1Oc1ncc(C(F)(F)F)cc1Cl)OC (stereo not drawn),72 µL/min/mg,15 µL/min/mg,–,–
CCCCCS(=O)(=O)NC(=O)OCc1ccc(OCCOC)cc1Oc1ncc(C(F)(F)F)cc1Cl,23 µL/min/mg,31 µL/min/mg,–,–
CCCCCS(=O)(=O)NC(=O)/C=C/c1ccc(OCCOC)cc1Oc1ccc(C(F)(F)F)cc1Cl,14 µL/min/mg,10 µL/min/mg,94 nM,–
CCCCCS(=O)(=O)NC(=O)/C=C/c1ccc(OCCOC)cc1Oc1ccc(C(F)(F)F)cn1,< 1 µL/min/mg,< 1 µL/min/mg,> 10000 nM,–
CCCCCS(=O)(=O)NC(=O)/C=C/c1ccc(OCCOC)cc1Oc1ncccc1Cl,18 µL/min/mg,15 µL/min/mg,> 10000 nM,–
CCCCCS(=O)(=O)NC(=O)/C=C/c1ccc(OCCOC)cc1Oc1ncc(Cl)cc1Cl,9 µL/min/mg,9 µL/min/mg,190 nM,–
CCCCCS(=O)(=O)NC(=O)/C=C/c1ccc(OCCOC)cc1Oc1ncc(NC(C)=O)cc1C,–,–,> 10000 nM,–
CCCCCS(=O)(=O)NC(=O)/C=C/c1ccc(OC(C)C)cc1Oc1ncc(C(F)(F)F)cc1Cl,19 µL/min/mg,19 µL/min/mg,–,–
CCCCCS(=O)(=O)NC(=O)/C=C/c1ccc(OCCOC2CC2)cc1Oc1ncc(C(F)(F)F)cc1Cl,25 µL/min/mg,17 µL/min/mg,–,–
CCCCCS(=O)(=O)NC(=O)/C=C/c1ccc(OCCOC)cc1Oc1ncc(N)cc1C,–,–,> 10000 nM,–

# From ChEMBL document CHEMBL2021860, “Structure-activity relationships and key structural feature of pyridyloxybenzene-acylsulfonamides as new, potent, and selective peroxisome proliferator-activated receptor (PPAR) γ Agonists” (Bioorg Med Chem, 2012)
